This is an account of results in US9828350B2, “5,6-dihydro-2H-[1,4]oxazin-3-yl-amine derivatives useful as inhibitors of beta-secretase (BACE)” (Janssen Pharmaceutica NV, priority 2010, dated 2017).

The test system of data set [1] is Abeta total. The data set can be described thus: Cellular αLisa assay in SKNBE2 cells, Abeta total. The format is cell-based, human. To be noted: Homo sapiens, SKNBE2, 18 h, incubated for 18 hours, read-out: Cellular αLisa assay in SKNBE2 cells Abetatotal pIC50 (converted). An outline of the steps: (§1)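 Human neuroblastoma SKNBE2 cells expressing wild-type hAPP695 were incubated with compound for 18 hours. Secreted Abeta total and Abeta 1-42 in medium were quantified by sandwich αLisa: biotinylated AbN/25 on streptavidin donor beads with Ab4G8 (total) or cAb42/26 (1-42) acceptor beads. Light emission read after 1 hour (ex 650 nm, em 615 nm).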

Data set [2] has as its system Abeta 1-42. The data set is described as follows: Cellular αLisa assay in SKNBE2 cells, Abeta 1-42. The data set is classed as cell-based, human. To be noted: Homo sapiens, SKNBE2, 18 h, incubated for 18 hours, read-out: Cellular αLisa assay in SKNBE2 cells Abeta 42 pIC50 (converted). An outline of the steps:
as §1

In data set [3] the test system is Aβtotal. The data set is described as follows: Demonstration of in vivo efficacy, brain Aβtotal lowering (ELISA). To be noted: mouse brain, 30 mpk, s.c., 4 h.
Data set [4] deals with T1, P-gp (Homo sapiens, UniProt P08183).
T1 construct: expressed in transfected cells; host or cells: LLC-PK1 cells stably transduced with MDR1 (LLC-MDR1)
The data set can be described thus: Transepithelial transport of test compounds through LLC-MDR1 monolayers. The data set is classed as in vitro ADME. To be noted: pig, LLC-PK1. In short, it runs like this:
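LLC-PK1 cells stably transduced with human MDR1, grown 5 days on transwell inserts; compound at 1 μM applied apically or basolaterally (A→B, B→A) in OPTI-MEM with 1% BSA, 120 min at 37 °C, triplicate. Acceptor and donor sampled and quantified by LC-MS/MS; fluorescein checked monolayer integrity.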

SMILES strings stand for the structures.

T1 sequence (P08183 whole entry): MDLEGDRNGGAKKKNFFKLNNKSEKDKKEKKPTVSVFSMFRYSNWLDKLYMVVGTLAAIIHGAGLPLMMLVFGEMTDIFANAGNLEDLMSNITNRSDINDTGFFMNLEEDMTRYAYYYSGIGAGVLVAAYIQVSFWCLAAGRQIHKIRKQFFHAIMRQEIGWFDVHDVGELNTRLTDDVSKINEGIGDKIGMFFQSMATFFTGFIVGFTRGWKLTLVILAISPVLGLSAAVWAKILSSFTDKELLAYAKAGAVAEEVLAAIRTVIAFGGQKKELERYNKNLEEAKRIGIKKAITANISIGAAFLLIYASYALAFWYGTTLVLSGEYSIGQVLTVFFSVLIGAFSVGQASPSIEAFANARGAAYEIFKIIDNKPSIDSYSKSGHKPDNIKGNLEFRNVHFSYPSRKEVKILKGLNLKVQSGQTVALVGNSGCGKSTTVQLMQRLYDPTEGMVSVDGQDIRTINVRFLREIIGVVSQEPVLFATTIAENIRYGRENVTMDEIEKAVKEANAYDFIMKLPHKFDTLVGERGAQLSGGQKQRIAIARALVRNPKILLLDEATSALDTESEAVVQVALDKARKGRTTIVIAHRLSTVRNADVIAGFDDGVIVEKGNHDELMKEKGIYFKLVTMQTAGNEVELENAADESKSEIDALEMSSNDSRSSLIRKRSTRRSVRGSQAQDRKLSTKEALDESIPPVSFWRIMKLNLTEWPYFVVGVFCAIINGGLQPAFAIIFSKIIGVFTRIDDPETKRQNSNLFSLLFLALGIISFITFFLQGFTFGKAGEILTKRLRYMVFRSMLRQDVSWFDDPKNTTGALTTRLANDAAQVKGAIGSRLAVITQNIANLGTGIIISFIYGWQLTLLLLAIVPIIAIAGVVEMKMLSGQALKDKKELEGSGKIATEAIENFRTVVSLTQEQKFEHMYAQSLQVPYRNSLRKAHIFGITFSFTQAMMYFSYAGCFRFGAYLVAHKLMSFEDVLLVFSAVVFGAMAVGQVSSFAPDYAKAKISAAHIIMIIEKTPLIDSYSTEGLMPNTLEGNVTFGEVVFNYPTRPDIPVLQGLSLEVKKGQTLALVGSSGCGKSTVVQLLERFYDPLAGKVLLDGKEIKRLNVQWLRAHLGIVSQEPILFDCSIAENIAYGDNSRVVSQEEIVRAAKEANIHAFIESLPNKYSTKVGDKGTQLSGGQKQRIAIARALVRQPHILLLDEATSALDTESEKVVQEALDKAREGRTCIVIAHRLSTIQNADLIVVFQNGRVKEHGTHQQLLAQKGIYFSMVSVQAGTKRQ

Regarding `C[C@]1(c2cccc(NC(=O)c3ccc(Cl)cn3)c2)N=C(N)CO[C@@H]1F` (single isomer, unassigned) [Compound 86, (R*,R*)—N-[3-(5-amino-2-fluoro-3-methyl-3,6-dihydro-2H-1,4-oxazin-3-yl)phenyl]-5-chloropyridine-2-carboxamide], the IC50 in data set [1] is 6.17 nM; in data set [2], 6.92 nM. In addition, the “Aβtotal (% Ctrl)_Mean” value in data set [3] is on record as 55 % Ctrl. Besides, the efflux ratio at 120 min, 1 μM in data set [4] (LLC-MDR1 monolayers, ratio of B to A and A to B permeation rates, read-out: BA/AB) was 1.6. For the same compound, in data set [4] (read-out: A to B (Apparent Permeability, Papp)), the Papp A→B at 120 min, 1 μM was 13.2 ×10⁻⁶ cm/s. The Papp B→A at 120 min, 1 μM in data set [4] (read-out: B to A (Apparent Permeability, Papp)) came out at 20.9 ×10⁻⁶ cm/s.
